In data set [1] the test system is acetylation of histone H3 (primary substrate of HDAC1 and other nuclear HDACs) in NB4, U87 and U2OS cells. In words: Western blot, acetylation of histone H3 in cancer cell lines. It counts as cell-based. As to conditions: 5 μM for 30 h. A general note: A western blot detects proteins with antibodies after separation by electrophoresis.
Data set [2] relates to tubulin acetylation (the client protein of HDAC6) in NB4, U87 and U2OS cells. In words: Western blot, acetylation of α-tubulin in cancer cell lines. It counts as cell-based. As to conditions: 5 μM for 30 h; for acetylation of tubulin: NB4 and U87 cells.
Data set [3] has as its system ABC derived from IPF patients. In words: 3D organoid. It counts as cell-based, human. As to conditions: ABC from IPF patients (n = 3), 14 days.
For data set [4], the system named is TA98 and TA100 strains of Salmonella typhimurium. Put plainly: Ames test with and without S9 fraction. It counts as cell-based. As to conditions: TA98 and TA100, with and without S9 fraction of rat liver, 1–75 μM. On the technique in general: In the Ames test, an excess of revertant colonies over the control signals mutagenicity.
Data set [5] deals with zebrafish larvae (Danio rerio). In words: Toxicity screen and optokinetic visual behaviour assay in zebrafish larvae. The format is in vivo.
For data set [6], the system named is TGF-β1-stimulated human lung parenchyma. In words: Human lung tissue explant model of TGF-β1-dependent fibrogenesis. It counts as cell-based. Conditions: 6h 4.1 μM, TGF-β1 10 ng/ml, 7 days.

SMILES strings stand for the structures.

With `CN1CCC2(CC1)c1ccccc1N(Cc1ccc(C(=O)NO)cc1)C2c1ccccc1` (racemic) [(±)-6a, (±)-N-Hydroxy-4-((1’-methyl-2-phenylspiro[indoline-3,4’-piperidin]-1-yl)methyl)benzamide], the “histone H3 acetylation” value in data set [1] was “unchanged”. Further, in data set [2], the acetylation of tubulin entry is “marked acetylation of tubulin”. Moreover, the spheres formation result in data set [3] is listed as “complete inhibition”.

For the molecule `CN1CCC2(CC1)c1ccccc1N(Cc1ccc(C(=O)NO)cc1)C2c1ccccc1F` (racemic) [(±)-6d, (±)-4-((2-(2-Fluorophenyl)-1’-methylspiro[indoline-3,4’-piperidin]-1-yl)methyl)-N-hydroxybenzamide], the “histone H3 acetylation” value in data set [1] is reported as “also induced the acetylation of histone H3”. In data set [2], the acetylation of tubulin result is “equally effective in inhibiting HDAC6”. Also, the spheres formation result in data set [3] was “complete inhibition”.

Turning to `CN1CCC2(CC1)c1ccccc1N(Cc1ccc(C(=O)NO)cc1)C2c1ccc(F)cc1` (racemic) [(±)-6e, (±)-4-((2-(4-Fluorophenyl)-1’-methylspiro[indoline-3,4’-piperidin]-1-yl)methyl)-N-hydroxybenzamide], the “histone H3 acetylation” value in data set [1] was “unchanged”. For the same molecule, in data set [2], the acetylation of tubulin result was “marked acetylation of tubulin”.

On to `CC1(C)c2ccccc2N(Cc2ccc(C(=O)NO)cc2)C1c1cccnc1` (racemic) [(±)-6h, (±)-4-((3,3-Dimethyl-2-(pyridin-3-yl)indolin-1-yl)methyl)-N-hydroxybenzamide], for which the mutagenic effect entry in data set [4] is “no mutagenic effect”. Moreover, the toxic effects observed entry in data set [5] (100 μM, 3 days old larvae treated for 2 days) is “some larvae failed to inflate their swim bladder and presented mild cardiac edema”. In addition, the well tolerated concentration result in data set [5] (3 days old larvae treated for 2 days, 1-100 μM) is “up to 50 μM”. In addition, the “visual behavior versus vehicle control (0.1% DMSO)” value in data set [5] (five days old larvae, 1 to 100 μM) was “no significant changes”. Besides, the “mRNA expression for HDAC6” value in data set [6] (n = 3 donors) is “significantly inhibited”. In data set [6] (n = 6 donors), the “mRNA expression for collagen type I” value is “significantly inhibited”, the “mRNA expression for collagen type III” value is “significantly inhibited”, the “mRNA expression for fibronectin” value is “significantly inhibited” and the “mRNA expression for α-SMA” value is on record as “significantly inhibited”. The “histone H3 acetylation” value in data set [1] is “unchanged”. In data set [2], the acetylation of tubulin entry was “marked acetylation of tubulin”. For the same molecule, in data set [3], the spheres formation result was “complete inhibition”.

With `CC1(C)c2ccccc2N(Cc2ccc(C(=O)NO)cc2)C1c1ccncc1` (racemic) [(±)-6l], in data set [1], the “histone H3 acetylation” value is “unchanged”. In data set [2], the acetylation of tubulin entry is on record as “marked acetylation of tubulin”. Further, the “acetylation of α-tubulin versus histone H3” value in data set [2] (U2OS cell line) is “preferentially promote acetylation of α-tubulin”. Further, the spheres formation entry in data set [3] is listed as “complete inhibition”.

The values are drawn from PMC8300879 (Journal of medicinal chemistry, 2021).
